Columns and labels:
[1] = test system: tetraploidem Roggen Belta; experiment: Field test of gametocidal activity, tetraploid rye Belta; format: in vivo; conditions: period V, 1% aqueous emulsion, 6 kg/ha in 600 l water
Excerpt: (§1) Die gametozide Aktivität der erfindungsgemäßen Sterilisationsmittel war in Feldversuchen in verschiedenen bodenklimatischen Zonen mit Teilstücken von 10 m^2 Größe in dreibis viermaliger Wiederholung festgestellt. Jedes Sterilisationsmittel wurde mindenstens 5 Jahre lang geprüft.
(§2) Die Entwicklung der Perioden der Organogenese wird zytologisch überwacht. Die Behandlung von Pflanzen mit dem Sterilisationsmittel erfolgt am Anfang der fünften Periode der Organogenese nach Kupermann.
(§3) Mit dem Ährenschieben verwirklicht man die Isolierung von Hauptähren und anderen Stockwerken in Pergametbeuteln. Bei Weizen und Tritikale werden Einzelisolatoren benutzt. Bei Roggen schließt man je 1 Ähre von […] verschiedenen nebeneinander befindlichen Pflanzen unter einen gemeinsamen Isolator ein. Bei Hirse wird jede Rispe getrennt isoliert. Der Sterilitätsprozentsatz (X) für Weizen, Roggen, Tritikale und Hirse wird nach der Formel [formula] ermittelt.
(§4) Die Kornzahl in nicht isolierten Ähren von Kontrollpflanzen wird bedingt für 100 % Ansetzen bei freier Bestäubung angenommen.
(§5) Um zuverlässige Angaben zu erhalten, verwendet man 20 bis 25 Isolatoren je Wiederholung für Weizen und Tritikale, 10 bis 15 Isolatoren jeder Wiederholung für Roggen und Hirse.
Pflanzen von tetraploidem Roggen Belta werden in der V.Periode der Organogenese (nach Kupermann) mit einer 1%igen wäßrigen Emulsion von 1,1,3-Tribrompropan, 1,1,3--Tribrom-4-chlorbutan, 1,1,2,3-Tetrabrompropan, 1,2,3-Tribrompropan, 1,1,3-Tribrom-3-chlorpropan bzw. 1,2-Dibrom--3-chlorpropan behandelt.
Die Emulsion enthält 0,5 Masse% C12-C14-Kalziumalk^yl-benzolsulfonat und 0,01 Masse% Dimethylsulfoxid. Der Verbrauch an Präparat beträgt 6 kg/ha bei 600 1 Wasserdurchsatz.Die Prüfergebnisse sind in der Tabelle 7 angegeben. Die gleichen Ergebnisse sind bei der Behandlung von tetraploidem Roggen Belta in der VI. Periode der Organogenese erhalten.

[2] = test system: Winterweizens Sorte Mironowskaya 808; experiment: Field test of gametocidal activity (anther sterilisation), winter wheat Mironowskaya 808; format: in vivo, Weizen; conditions: for Kornzahl der Ähre bei freier Bestäubung / Kornzahl der Ähre im Isolator / Prozentsatz des Ansetzens von Samen bei freier Bestäubung: Mironowskaya 808, period V of organogenesis, 1% aqueous emulsion, 10 kg/ha; for Prozentsatz des Ansetzens von Samen bei freier Bestäubung: control = 100; for pest or weed control at 1 %, 10000 g/ha: read-out: Prozentsatz der Sterilität %
Excerpt: as §1, §2, §3, §4, §5
Pflanzen des Winterweizens Sorte Mironowskaya 808 werden in der V.Periode der Organogenese durch Zerstäubung der 2%igen wäßrigen Emulsion von 1,1,3-Tribrompropan mit Hilfe einer Rückenspritze behandelt.
Als Emulgierungsmittel setzt man 0,5 Masse% C12-C14--Kalziumalkylbenzolsulphonat zu. Als Adjuvans enthält die Emulsion 0,01 Masse% Dimethylsulfoxid. Der Verbrauch an Präparat beträgt 20 kg/ha bei 1000 Liter Wasserdurchsatz. Als Kontrolle dienen Pflanzen, behandelt mit einem Verdünner ohne Sterilisationsmittel. Die Ergebnisse sind in der Tabelle 1 angegeben.
Der ProzeB wird analog zu dem in Beispiel 1 beschriebenen durchgeführt. Als Sterilisationsmittel verwendet man eine 2%ige waßrige Emulsion von 1,1,3-Tribrom-4-chlorbutan, 1,1,2,3-Tetrabrompropan. Die Prüfergebnisse sind in der Tabelle 1 angegeben.
Der Prozeß wird analog zu dem in Beispiel 1 beschriebenen durchgeführt, nur daß man 1%ige wäßrige Emulsion von 1,2,3-Tribrompropan, 1,2-Dibrompropan, 1,1,3-Tribrom-3--chlorpropan, 1,2-Dibrom-3-chlorpropan, 1,3-Dibrompropan, 1,1,1,3-Tetrabromheptan, 1,1,3-Tribromheptan, 1,2-Dibromheptan verwendet. Die Präparatdosis beträgt 10 kg ha. Die Prüfergebnisse sind in der Tabelle 1 angegeben. Die gleichen Ergebnisse sind bei der Behandlung des Weizens Sorte Mironowskaya 808 in der VI. Periode der Organogenese erhalten.

[3] = test system: diploidem Roggen Chulpan; experiment: Field test of gametocidal activity, diploid rye Chulpan; format: in vivo; conditions: for Kornzahl der Ähre bei freier Bestäubung / Kornzahl der Ähre im Isolator / Prozentsatz des Ansetzens von Samen bei freier Bestäubung: Chulpan, period V, 1% aqueous emulsion, 10 kg/ha; for Prozentsatz des Ansetzens von Samen bei freier Bestäubung: control = 100; for pest or weed control at 10000 g/ha: read-out: Prozentsatz der Sterilität
Excerpt: as §1, §2, §3, §4, §5
Pflanzen von diploidem Roggen Chulpan werden in der V.Periode der Organogenese mit einer 1%igen wäßrigen Emulsion von 1,1,3-Tribrompropan, 1,1,3-Tribrom-4-chlorbutan, 1,1,2,3-Tetrabrompropan, 1,2,3-Tribrompropan, 1,2-Dibrompropan, 1,1,3-Tribrom-3-ohlorpropan, 1,2-Dibrom-3--chlorpropan, 1,3-Dibrompropan, 1,1,1,3-Tetrabromheptan, 1,1,3-Tribromheptan bzw. 1,2-Dibromheptan behandelt. Die Emulsion enthält 0,5 Masse% C12-C14-Kalziumalkylbenzolsul- fonat und 0,01 Masse% Dimethylsulfoxid. Der Verbrauch an Präparat beträgt 10 kg/ha. Die Prüfergebnisse sind in der Tabelle 11 angegeben. Die gleichen Ergebnisse sind bei der Behandlung von diploidem Roggen Chulpan in der VI. Periode der Organogenese erhalten.

[4] = test system: diploidem Roggen Kharkovskaya 55; experiment: Field test of gametocidal activity, diploid rye Kharkovskaya 55; format: in vivo
Excerpt: as §1, §2, §3, §4, §5
Pflanzen von diploidem Roggen Kharkovskaya 55 werden in der V. Periode der Organogenese mit einer l%igen wäßrigen Emulsion von 1,1,3-Tribrompropan, 1,2,3-Tribrompropan, 1,2-Dibrompropan, 1,1,3-Tribrom-3-chlorpropan, 1,2--Dibrom-3-chlorpropan, 1,1,1,3-Tetrabromheptan, 1,1,3-Tribromheptan bzw. 1,2-Dibromheptan behandelt. Die Emulsion enthält 0,5 Masse% C12-C14-Kalziumalkylbenzolsulfonat und 0,01 Masse% Dimethylformamid als Adjuvans. Der Verbrauch an Präparat beträgt 6 kg/ha bei 600 1 Wasserdurchsatz. Die Prüfergebnisse sind in der Tabelle 13 angegeben. Die gleichen Ergebnisse sind bei der Behandlung von diploidem Roggen Kharkovskaya 55 in der VI. Periode der Organogenese erhalten.

[5] = test system: Sommerweizens Sorte Moskowskaya 35; experiment: Field test of gametocidal activity, spring wheat Moskowskaya 35; format: in vivo, Weizen; conditions: for Kornzahl der Ähre bei freier Bestäubung / Kornzahl der Ähre im Isolator / Prozentsatz des Ansetzens von Samen bei freier Bestäubung: Moskowskaya 35, period V, 1% aqueous emulsion, 6 kg/ha in 600 l water; for Prozentsatz des Ansetzens von Samen bei freier Bestäubung: control = 100; for pest or weed control at 6000 g/ha: read-out: Prozentsatz der Sterilität
Excerpt: as §1, §2, §3, §4, §5
Pflanzen des Sommerweizens Sorte Moskowskaya 35 werden in der V. Periode der Organogenese (nach Kupermann) mit einer l%igen wäßrigen Emulsion von 1,1,3-Tribrompropan, […], 1,1,2,3-Tetrabrompropan, 1,2,3-Tribrompropan, 1,2-Dibrompropan, 1,1,3-Tribrom-3-chlorpropan, 1,2-Dibrom-3-chlorpropan, 1,3-Dibrompropan, 1,1,1,3-Tetrabromheptan bzw. 1,1,3-Tribromheptan behandelt. Die Emulsion enthält als Emulgierungsmittel 0,5 Masse% C12-C14-Kalzium- alkylbenzolsulfonat und als Adjuvans 0,01 Masse% Dimethylformamid. Der Verbrauch an Präparat beträgt 6 kg/ha bei 600 1 Wasserdurchsatz. Als Kontrolle dienen Pflanzen, behandelt mit dem Verdünner ohne Sterilisationsmittel.
Die Prüfergebnisse sind in der Tabelle 2 angegeben. Die gleichen Ergebnisse sind bei der Behandlung des Sommerweizens Sorte Moskowskaya 35 in der VI.Periode der Organogenese erhalten.

[6] = test system: Sommerweizens Sorte Rodina; experiment: Field test of gametocidal activity, spring wheat Rodina; format: in vivo, Weizen; conditions: period V, 1% aqueous emulsion, 6 kg/ha in 600 l water
Excerpt: as §1, §2, §3, §4, §5
Pflanzen des Sommerweizens Sorte Rodina werden in der V.Periode der Organogenese (nach Kupermann) mit einer l%igen wäßrigen Emulsion von 1,3-Dibrompropan, 1,1,1,3-Tetrabromheptan, 1,1,3-Tribromheptan bzw. 1,2-Dibromheptan behandelt. Die Emulsion enthalt 0,5 Masse% C12-C14 Kalziumalk^ylbenzol- sulfonat und 0,01 Masse% Dodezylsulfat. Der Verbrauch an Präparat beträgt 6 Kg/ha bei 600 1 Wasserdurchsatz. Als Kontrolle dienen Pflanzen, behandelt mit dem Verdünner ohne Sterilisationsmittel.
Die Prüfergebnisse sind in der Tabelle 3 angegeben. Die gleichen Ergebnisse sind bei der Behandlung des Sommerweizens Sorte Rodina in der VI. Periode der Organogenese erhalten.

[7] = Toxicity in animal test (LD50); design: species or system Mäuse; conditions: in vivo, mice stated only for 1,1,3-Tribrompropan, species not given for the others
Excerpt: Alle erfindungsgemäßen Polybromalkane, die als Sterilisationsmittel zur Verwendung kommen, waren auf die Toxizität im Tierversuch geprüft. Die Prüfergebnisse haben ergeben, daß die angegebenen Verbindungen von schwacher oder mittlerer Toxizität sind.

[8] = test system: Sommerweizens Sorte Botanicheskaya 4; experiment: Field test of gametocidal activity, spring wheat Botanicheskaya 4; format: in vivo, Weizen; conditions: period V, 1% aqueous emulsion, 6 kg/ha in 600 l water
Excerpt: as §1, §2, §3, §4, §5
Pflanzen des Sommerweizens Sorte Botanicheskaya 4 werden in der V. Periode der Organogenese (nach Kupermann) mit einer 1%igen wäßrigen Emulsion von 1,3-Dibrompropan, 1,1,1,3-Tetrabromheptan, 1,1,2-Tribromheptan bzw. 1,2--Dibromheptan behandelt. Die Emulsion enthält 0,5 Masse% C12-C14-Kalziumalkylbenzolsulfonat und 0,01 Masse% Dimethylsulfoxid als Adjuvans. Der Verbrauch an Präparat beträgt 6 kg/ha bei 600 1 Wasserdurchsatz. Als Kontrolle dienen Pflanzen, behandelt mit dem Verdünner ohne Sterilisationsmittel.
Die Prüfergebnisse sind in der Tabelle 4 angegeben. Die gleichen Ergebnisse sind bei der Behandlung des Sommerweizens Sorte Botanicheskaya 4 in der VI. Periode der Organogenese erhalten.

[9] = test system: Hirse Sorte Mironovskoye 94; experiment: Field test of gametocidal activity, millet Mironovskoye 94; format: in vivo
Excerpt: as §1, §2, §3, §4, §5
Pflanzen der Hirse Sorte Mironovskoye 94 werden in der V.Periode der Organogenese mit einer 1%igen wäßrigen Emulsion von 1,1,3-Tribrompropan, 1,2,3-Tribrompropan, 1,2-Dibrompropan, 1,2-Dibrom-3-chlorpropan, 1,3-Dibrompropan, 1,1,1,3-Tetrabromheptan, 1,1,3-Tribromheptan, 1,2-Dibromheptan behandelt. Die Emulsion enthält 0,5 Masse% C12-C14--Kalziumalkylbenzolaulfonat und 0,01 Masse% Dimethylsulfoxid als Adjuvans. Der Verbrauch an Präparat beträgt 6 kg/ha bei 600 1 Wasserdurchsatz. Die Prüfergebnisse sind in der Tabelle 15 angegeben. Die gleichen Ergebnisse sind bei der Behandlung der Hirse Sorte Mironovskoye 94 in der VI. Periode der Organogenese erhalten.

[10] = Kharkovskaya 55, period V, 1% aqueous emulsion, 6 kg/ha in 600 l water
[11] = read-out: Prozentsatz der Sterilität
[12] = Mironovskoye 94, period V, 1% aqueous emulsion, 6 kg/ha in 600 l water

| SMILES | Kornzahl der Ähre bei freier Bestäubung [2] | Kornzahl der Ähre im Isolator [2] | Prozentsatz des Ansetzens von Samen bei freier Bestäubung [2] | pest or weed control at 1 %, 10000 g/ha [2] [%] | Kornzahl der Ähre bei freier Bestäubung [3] | Kornzahl der Ähre im Isolator [3] | Prozentsatz des Ansetzens von Samen bei freier Bestäubung [3] | pest or weed control at 10000 g/ha [3] [%] | Kornzahl der Ähre bei freier Bestäubung [5] | Kornzahl der Ähre im Isolator [5] | Prozentsatz des Ansetzens von Samen bei freier Bestäubung [5] | pest or weed control at 6000 g/ha [5] [%] | Kornzahl der Ähre bei freier Bestäubung [8] | Kornzahl der Ähre im Isolator [8] | Prozentsatz der Sterilität [8] | other results |
| --- | --- | --- | --- | --- | --- | --- | --- | --- | --- | --- | --- | --- | --- | --- | --- | --- |
| ClC(Br)CC(Br)Br (stereo not drawn) [Beispiel 6, 1,1,3-Tribrom-3--chlorpropan] | 37,0 | 1,2 | 99,2% | 96.8 | 47,7 | 0,6 | 95,2% | 98.8 | 37,8 | 1,2 | 98,9% | 96.3 |  |  |  | Kornzahl der Ähre bei freier Bestäubung [1]: 39,8; Kornzahl der Ähre im Isolator [1]: 0,1; Prozentsatz der Sterilität [1]: 99,9%; Prozentsatz des Ansetzens von Samen bei freier Bestäubung ([1]; control = 100): 90,0%; Kornzahl der Ähre bei freier Bestäubung [4, 10]: 41,7; Kornzahl der Ähre im Isolator [4, 10]: 0,1; Prozentsatz des Ansetzens von Samen bei freier Bestäubung ([4]; Kharkovskaya 55, period V, 1% aqueous emulsion, 6 kg/ha in 600 l water, control = 100): 92,5%; pest or weed control at 6000 g/ha [4, 11]: 99.8% |
| BrCCCBr [Beispiel 8, 1,3-Dibrompropan] | 38,7 | 0,0 | 93,0% | 100 | 41,7 | 0,1 | 83,2% | 99.8 | 32,7 | 0,0 | 85,6% | 100 | 24,7 | 0,0 | 100,0% | Kornzahl der Ähre bei freier Bestäubung [6]: 37,1; Kornzahl der Ähre im Isolator [6]: 0,0; Prozentsatz der Sterilität [6]: 100,0%; Prozentsatz des Ansetzens von freier Bestäubung ([6]; control = 100): 91,8%; LD50 [7]: 473 ± 25 mg/kg; Kornzahl der Rispe bei freier Bestäubung [9, 12]: 212,7; Kornzahl der Rispe im Isolator [9, 12]: 0,0; Prozentsatz des Ansetzens von Samen bei freier Bestäubung ([9]; Mironovskoye 94, period V, 1% aqueous emulsion, 6 kg/ha in 600 l water, control = 100): 86,9%; pest or weed control at 6000 g/ha [9, 11]: 100% |
| CCCCCC(Br)C(Br)Br (stereo not drawn) [Beispiel 28, 1,1,2-Tribromheptan] |  |  |  |  |  |  |  |  |  |  |  |  | 29,2 | 0,0 | 100,0% | Prozentsatz des Ansetzens von Samen bei freier Bestäubung ([8]; control = 100): 94,5% |
